Columns and labels:
[1] = test system: DMBA mammary tumour; settings: DMBA mammary tumour model; extent and dose level similar to tamoxifen and ovariectomy; cited from earlier work
[2] = test system: human breast cancer cells; settings: in vitro; cited from earlier work
[3] = humans, cited from earlier work
[4] = test system: production of SHBG; settings: in vitro; cited from earlier work
[5] = Randomized, open-label, two-period, cross-over pharmacokinetic study, sublingual versus oral estetrol; format: in vivo, human; settings: 10 mg estetrol, healthy female volunteers
Procedure: A randomized, open-label, two-period, cross-over, pharmacokinetic study is conducted to compare sublingual bioavailability of 10 mg estetrol administered in one 80 mg tablet with oral availability of estetrol contained in a 83 mg tablet containing 10 mg estetrol. These tablets are administered sublingually and orally to healthy female volunteers under fasting conditions.
Ten healthy female subjects are selected on the basis of the following criteria: age of 45-65 years (inclusive), nonsmokers or past smokers (at least 6 months before dosing), body-mass index (BMI)=18.5 to 30 kg/m^2 (inclusive at the time of the screening).
At the start of the first and the second period of the study, between 07:00 am and 07:28 am, 5 subjects receive a single dose of the sublingual formulation of estetrol by administering one estetrol tablet (tablet weight 80 mg; 10 mg estetrol) and 5 subjects receive a single oral dose of the oral estetrol formulation by administering one estetrol tablet (tablet weight 83 mg; 10 mg estetrol), ingested together with 200 ml water. […]
The estetrol concentration in the collected blood samples is determined by means of HPLC/MS/MS. The concentrations of glucuronided estetrol (D-ring) in the urine samples is also determined with the help of HPLC/MS/MS.

[6] = test system: vagina, uterus, body weight, bone mass, bone strength, hot flushes, ovulation; settings: rat models; dose-dependent; cited from earlier work
[7] = target: T1, sex hormone binding globulin (SHBG) (Homo sapiens, UniProt P04278); settings: in vitro; cited from earlier work
T1 sequence (P04278 30-402): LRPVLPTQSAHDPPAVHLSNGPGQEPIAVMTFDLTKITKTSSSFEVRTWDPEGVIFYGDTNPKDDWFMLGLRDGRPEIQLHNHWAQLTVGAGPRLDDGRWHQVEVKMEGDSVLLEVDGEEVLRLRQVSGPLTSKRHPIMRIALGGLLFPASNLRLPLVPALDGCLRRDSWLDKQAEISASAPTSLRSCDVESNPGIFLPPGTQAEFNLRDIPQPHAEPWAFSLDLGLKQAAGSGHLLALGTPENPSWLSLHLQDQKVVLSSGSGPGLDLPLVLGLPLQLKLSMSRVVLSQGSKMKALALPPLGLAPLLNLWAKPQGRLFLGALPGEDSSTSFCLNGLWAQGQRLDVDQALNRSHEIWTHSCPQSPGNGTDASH

[8] = test system: estrogen receptors; settings: in vitro; cited from earlier work

For `C[C@]12CC[C@@H]3c4ccc(O)cc4CC[C@H]3[C@@H]1[C@@H](O)[C@@H](O)[C@@H]2O` [estetrol, 1,3,5 (10)-estratrien-3,15α,16α,17β-tetrol], the Tumour development [1] is given as “prevented tumour development”, the “Effect in the presence of 17β-estradiol” value [2] is given as “anti-estrogenic effect” and the Oral bioavailability ([3]; oral) is given as “high and dose-proportional”. For the same compound, the Terminal elimination half-life [3] was “about 28 hours”, the “Stimulation of the production of SHBG” value [4] was “does not stimulate the production of SHBG” and the “Bioavailability of sublingually administered estetrol versus orally administered estetrol” value ([5]; 80 mg sublingual tablet vs 83 mg oral tablet, fasting) was “comparable or even superior to orally administered estetrol”. For the same compound, the “Impact on a liver function parameter, sublingual versus oral” value ([5]; sublingual) was “less impact on a liver function parameter”, the “Estrogenic effects on vagina, uterus, body weight, bone mass, bone strength, hot flushes and ovulation” value [6] was “exhibited estrogenic effects” and the “Binding to SHBG” value [7] was “does not bind”. The “Binding selectivity for estrogen receptors” value [8] was “binds highly selective to the estrogen receptors with preference for the ERα form of the receptor”.
